Results from patent US12419862B2, “Use of a cathepsin s inhibitor against the formation of anti-drug antibodies” (Hoffmann-La Roche Inc., priority 2018, dated 2025).

How the values were obtained:
[1] = tested on: TCRβ+CD8+ T cells and NK1.1+ NKp46+ NK cells; assay: PD effect of CEA-IL2v in blood, flow cytometry of CD8 T cells and NK cells (Example 5); type: in vivo; conditions: mice of Example 4; cathepsin S inhibitor 40 mg/kg/day vs vehicle
Experimental: (§1) 15-week-old mice C57BL/6-Tg (hIgG1,k,l) and C57BL/6 wild type mixed gender were purchased from Taconic (Denmark) and housed at the animal facilities in room with air-conditioned under a 12 hours light/dark cycle in macrolon boxes with enriched environment and free access to water and food. 7×10 μg of CEA-IL2v (Batch no GLI0144-01) were injected at day 0, 4, 7, 11, 14, 18 and 21 for the primary response, and at day 49, 53, 56 and 60 for the memory response. The CEA-112v injections were done subcutaneously in the right flank or the left flank alternatively. The dosage of (2S,4R)-4-[4-(1-methyl-1H-pyrazol-4-yl)-2-trifluoromethyl-benzenesulfonyl]-1-(1-trifluoromethyl-cyclopropanecarbonyl)-pyrrolidine-2-carboxylic acid (1-cyano-cyclopropyl)-amide consumption was 40 mg/kg/day. […]
From Example 4, 50 μl of lithium heparin whole blood were transferred into a 5 ml polystyrene round-bottom tubes (BD Falcon, Cat. no 352058) and 2 ml of freshly prepared 1× Pharm Lyse™ lysing buffer (BD Bioscience, Cat. no 555899) with UltraPur™ distilled water (Invitrogen, Cat. no 10977-035) were added. […] Data were acquired with the BD FACSDiva software v8.0 on BD LSRFortessa™ cytometer and analyzed with FlowJo™ V10.

[2] = tested on: CEA-specific IgG response; assay: ADA against CEA-IL2v in wild-type mice over time, ELISA (Example 4, 63 days); type: in vivo, C57BL/6 wild type mice; conditions: 40 mg/kg/day via food admix, primary and memory response, samples to day 63, vs vehicle
Experimental: as §1
Nunc Maxisorp flat-bottom 96 well ELISA plates were coated with 100 μl per well of Humira or CEA-PGLALA respectively at 5 μg/mL in NaHCO3100 mM buffer overnight at +4° C. […] 100 μl of substrate P-nitrophenyl phosphate ready to use (Life Technologies, Cat no 002212) were added per well and after 10 min incubation at room temperature, the OD at 405 nm was read as an end-point measurement with a Versamax ELISA reader.

## Cn1cc(-c2ccc(S(=O)(=O)[C@@H]3C[C@@H](C(=O)NC4(C#N)CC4)N(C(=O)C4(C(F)(F)F)CC4)C3)c(C(F)(F)F)c2)cn1 [cathepsin S inhibitor, (2S,4R)-4-[4-(1-methyl-1H-pyrazol-4-yl)-2-trifluoromethyl-benzenesulfonyl]-1-(1-trifluoromethyl-cyclopropanecarbonyl)-pyrrolidine-2-carboxylic acid (1-cyano-cyclopropyl)-amide]
[1]
  Effect on CEA-IL2v pharmacology (percentages of CD8 T cells and NK cells in blood): CEA-112v pharmacology is preserved
[2]
  ADA to CEA-IL2v (CEA-specific IgG) over time: reduces its levels in wild-type mice
